The target in assay [1] is T1, cloned human glucagon receptor (Homo sapiens, UniProt P47871).
T1 construct: expressed in transfected cells; plasma membrane preparation
Nature of the assay: Glucagon Binding Assay (I). The following applies: for IC50: plasma membranes of BHK cells expressing the receptor, 125I-glucagon tracer, read-out: Glu Bd Assay (I) IC50. The method, then:
Binding of compounds to the glucagon receptor was determined in a competition binding assay using the cloned human glucagon receptor.
Receptor binding was assayed using cloned human receptor (Lok et al., Gene 140, 203-209 (1994)). The receptor inserted in the pLJ6′ expression vector using EcoRI/SSt1 restriction sites (Lok et al.) was expressed in a baby hamster kidney cell line (A3 BHK 570-25).
Plasma membranes were prepared by growing cells to confluence, detaching them from the surface and resuspending the cells in cold buffer (10 mM tris/HCl, pH 7.4 containing 30 mM NaCl, 1 mM dithiothreitol, 5 mg/L leupeptin (Sigma), 5 mg/L pepstatin (Sigma), 100 mg/L bacitracin (Sigma) and 15 mg/L recombinant aprotinin (Novo Nordisk A/S)), homogenization by two 10-s bursts using a Polytron PT 10-35 homogenizer (Kinematica), and centrifugation upon a layer of 41 w/v % sucrose at 95.000×g for 75 min. The white band located between the two layers was diluted in buffer and centrifuged at 40.000×g for 45 min. The precipitate containing the plasma membranes was suspended in buffer and stored at −80° C. until use. Glucagon was iodinated according to the chloramine T method (Hunter and Greenwood, Nature 194, 495 (1962)) and purified using anion exchange chromatography (Jørgensen et al., Hormone and Metab. Res. 4, 223-224 (1972). The specific activity was 460 μCi/μg on the day of iodination. Tracer was stored at −18° C. in aliquots and were used immediately after thawing.
Binding assays were carried out in triplicate in filter microtiter plates (MADV N65, Millipore). The buffer used in this assay was 50 mM HEPES, 5 mM EGTA, 5 mM MgCl2, 0.005% tween 20, pH 7.4. Glucagon was dissolved in 0.05 M HCl, added an equal amount (w/w) of HSA and freeze-dried. On the day of use, it was dissolved in water and diluted in buffer to the desired concentrations.
Test compounds were dissolved and diluted in DMSO. 140 μL buffer, 25 μL glucagon or buffer, and 10 μL DMSO or test compound were added to each well. Tracer (50.000 cpm) was diluted in buffer and 25 μL were added to each well. 1-4 μg freshly thawed plasma membrane protein diluted in buffer was then added in aliquots of 25 μL to each well. Plates were incubated at 30° C. for 2 hours. Non-specific binding was determined with 10^−6 M of glucagon. Bound tracer and unbound tracer were then separated by vacuum filtration (Millipore vacuum manifold). The plates were washed with 2×100 μL buffer/well. The plates were air dried for a couple of hours, whereupon the filters were separated from the plates using a Millipore Puncher. The filters were counted in a gamma counter.

Assay [2] addresses T2, human glucagon receptor (Homo sapiens, UniProt P47871).
T2 construct: expressed in transfected cells; host or cells: BHK (baby hamster kidney) cells
Nature of the assay: Glucagon Binding Assay (III). The following applies: BHK cell membranes, WGA SPA beads, 125I-glucagon; read-out: Glu Bd Assay (III) IC50. The method in brief:
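Membranes from BHK cells transfected with the human receptor, prepared at 4 °C, were used in a WGA-bead scintillation proximity binding format. Plates were shaken for 4 hours, left to settle 8–48 hours and then counted. Non-specific binding was defined with 500 nM glucagon.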

The target in assay [3] is T1, cloned human glucagon receptor. Nature of the assay: Glucagon Binding Assay (II). The following applies: for IC50: plasma membranes of BHK cells expressing the receptor, read-out: Glu Bd Assay (II) IC50; for inhibition at 1 µM: screened at 1 μM, library compounds, read-out: displacement of the glucagon tracer when screened at 1 μM concentration in the glucagon binding assay II.

Consider 24 compounds from US6875760B2 (Novo Nordisk A/S, priority 1999, dated 2005).

Bounds are passed on as bounds.

A word on the IC50: it is the concentration that gives 50% inhibition.

T1 sequence (P47871 26-477): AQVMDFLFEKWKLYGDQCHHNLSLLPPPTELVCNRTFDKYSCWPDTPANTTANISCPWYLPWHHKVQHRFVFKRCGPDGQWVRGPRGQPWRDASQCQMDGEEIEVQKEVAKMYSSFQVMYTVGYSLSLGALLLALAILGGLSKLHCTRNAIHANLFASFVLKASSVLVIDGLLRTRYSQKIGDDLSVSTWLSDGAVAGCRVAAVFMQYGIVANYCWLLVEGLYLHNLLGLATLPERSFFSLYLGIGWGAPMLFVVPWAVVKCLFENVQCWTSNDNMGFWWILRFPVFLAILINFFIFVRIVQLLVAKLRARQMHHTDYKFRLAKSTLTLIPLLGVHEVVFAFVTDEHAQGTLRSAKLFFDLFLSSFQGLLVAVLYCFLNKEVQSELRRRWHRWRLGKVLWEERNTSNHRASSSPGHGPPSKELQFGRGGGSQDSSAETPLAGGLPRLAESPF
T2 sequence (P47871 26-477): as above

Turning to `O=C(O)CCNC(=O)c1ccc(CN(CCC(c2ccccc2)c2ccccc2)C(=O)c2ccc(Cl)cc2)cc1` [Example 8, 3-(4-{[N-(4-Chlorobenzoyl)-N-(3,3-diphenylpropyl)amino]methyl}benzoylamino)propionic acid], in assay [1], the “Glu Bd Assay (I) Effect, 100-Residual binding (%) at 1 μM” value was 37.8% and the 50% inhibitory concentration (IC50) amounted to 675 nM.

Consider `CC(C)(C)C1CCC(N(Cc2ccc(C(=O)Nc3nn[nH]n3)cc2)C(=O)C=Cc2c(Cl)cccc2Cl)CC1` (stereo not shown) [Example 477, 4-({(4-tert-Butylcyclohexyl)-[3-(2,6-dichlorophenyl)acryloyl]amino}methyl)-N-(2H-tetrazol-5-yl)benzamide], for which the IC50 came out at 464 nM in assay [2] and 224 nM in assay [3].

As for `O=C(O)CCNC(=O)c1ccc(CN(C(=O)Nc2ccc(OC(F)(F)F)cc2)C2CCCCC2)cc1`, the IC50 in assay [1] was 2700 nM.

Regarding `CC(C)(C)C1CCC(N(Cc2ccc(C(=O)NCCC(=O)O)cc2)C(=O)Nc2ccc(OC(F)(F)F)cc2)CC1` (stereo not shown) [Example 11, 3-{4-[1-(4-tert-Butylcyclohexyl)-3-(4-trifluoromethoxyphenyl)ureidomethyl]benzoylamino}propionic acid], in assay [1], the IC50 came to 27 nM.

On to `CC(C)(C)c1ccc(CN(Cc2ccc(C(=O)NCCC(=O)O)cc2)C(=O)/C=C/c2c(Cl)cccc2Cl)cc1` [Example 6, 3-(4-{[N-[3-(2,6-Dichlorophenyl)acryloyl]-N-(4-tert-butylbenzyl)amino]methyl}benzoylamino)propionic acid], for which, in assay [1], the “Glu Bd Assay (I) Effect, 100-Residual binding (%) at 1 μM” value is recorded as 29.5% and the IC50 stood at 1200 nM.

In the case of `CC(C)(C)C1CCC(N(Cc2ccc(C(=O)NCCC(=O)O)cc2)C(=O)c2cc3ccccc3s2)CC1` (stereo not shown) [Example 4, 3-(4-{[N-(Benzo[b]thiophen-2-carbonyl)-N-(4-tert-butylcyclohexyl)amino]methyl}benzoylamino)propionic acid], in assay [1], the “Glu Bd Assay (I) Effect, 100-Residual binding (%) at 1 μM” value was 28.5%.

As to `CC(C)(C)C1CCC(N(Cc2ccc(C(=O)NCCC(=O)O)cc2)C(=O)Nc2ccc(-c3ccccc3)cc2)CC1` (stereo not shown) [Example 12, 3-{4-[3-Biphenyl-4-yl-1-(4-tert-butylcyclohexyl)ureidomethyl]benzoylamino}propionic acid], the IC50 in assay [1] was determined as 20 nM.

For the compound `CCCCC(CC)CN(Cc1ccc(C(=O)NCCC(=O)O)cc1)C(=O)/C=C/c1c(Cl)cccc1Cl` (stereo not shown) [Example 5, 3-(4-{[N-[3-(2,6-Dichlorophenyl)acryloyl]-N-(2-ethylhexyl)amino]methyl}benzoylamino)propionic acid], in assay [1], the “Glu Bd Assay (I) Effect, 100-Residual binding (%) at 1 μM” value turned out to be 31.1% and the half-maximal inhibitory concentration (IC50) amounted to 800 nM.

For the compound `O=C(O)CCNC(=O)c1ccc(CN(C(=O)Nc2cc(Cl)cc(Cl)c2)C2CCC3(CC2)SCCS3)cc1`, in assay [1], the IC50 was found to be 1340 nM.

`O=C(O)CCNC(=O)c1ccc(CN(CC(c2ccccc2)c2ccccc2)C(=O)c2csc3ccc(Cl)cc23)cc1` [Example 1, 3-(4-{[N-(5-Chlorobenzo[b]thiophen-3-carbonyl)-N-(2,2-diphenylethyl)amino]methyl}benzoylamino)propionic acid]: the IC50 in assay [1] came out at 120 nM.

As to `O=C(O)CCNC(=O)c1ccc(CN(C(=O)Nc2ccc(OC(F)(F)F)cc2)c2ccc(C3CCCCC3)cc2)cc1` [Example 179, 3-{4-[1-(4-Cyclohexylphenyl)-3-(4-trifluoromethoxyphenyl)ureidomethyl]benzoylamino}propionic acid], the half-maximal inhibitory concentration (IC50) in assay [2] was 51 nM; in assay [3] it was 33 nM.

Take `CC(C)(C)C1CCC(N(Cc2ccc(C(=O)NCCC(=O)O)cc2)C(=O)Nc2cccc(C(F)(F)F)c2)CC1` (stereo not shown) [Example 13, 3-{4-[1-(4-tert-Butylcyclohexyl)-3-(3-trifluoromethylphenyl)ureidomethyl]benzoylamino}propionic acid]: the IC50 in assay [1] came out at 78 nM.

In the case of `O=C(O)CCNC(=O)c1ccc(CN(CCc2ccc(Cl)c(Cl)c2)C(=O)c2csc3ccc(Cl)cc23)cc1` [Example 2, 3-(4-{[N-(5-Chlorobenzo[b]thiophen-3-carbonyl)-N-(3,4-dichlorophenylethyl)amino]methyl}benzoylamino)propionic acid], in assay [1], the half-maximal inhibitory concentration (IC50) stood at 1300 nM.

Regarding `O=C(Nc1nn[nH]n1)c1ccc(CN(C(=O)Nc2ccc(Cl)c(C(F)(F)F)c2)c2ccc(C3CCCCC3)cc2)cc1` [Example 282, 4-[3-(4-Chloro-3-trifluoromethylphenyl)-1-(4-cyclohexylphenyl)ureidomethyl]-N-(2H-tetrazol-5-yl)benzamide], the half-inhibitory concentration (IC50) in assay [2] is 21 nM; in assay [3], 3 nM.

As to `O=C(O)CCNC(=O)c1ccc(CN(C(=O)Nc2cc(Cl)cc(Cl)c2)c2ccc(C3CCCCC3)cc2)cc1` [Example 232, 3-{4-[1-(4-Cyclohexylphenyl)-3-(3,5-dichlorophenyl)ureidomethyl]benzoylamino}propionic acid], the IC50 in assay [2] is 30 nM; in assay [3], 17 nM.

With `O=C(O)CCNC(=O)c1ccc(CN(Cc2ccc(OC(F)(F)F)cc2)[C@H]2CC[C@@H](C3CCCCC3)CC2)cc1` [Example 570, 3-(4-{[(cis-4-Cyclohexylcyclohexyl)-(4-trifluoromethoxybenzyl)amino]methyl}benzoylamino)propionic acid], the IC50 in assay [3] was determined as 44 nM.

As to `O=C(O)CCNC(=O)c1ccc(CN(C(=O)Nc2cc(Cl)cc(Cl)c2)c2ccc(C3=CCCCC3)cc2)cc1` [Example 605, 3-{4-[1-(4-Cyclohex-1-enylphenyl)-3-(3,5-dichlorophenyl)ureidomethyl]benzoylamino}propionic acid], the IC50 in assay [3] is 15 nM.

As for `CC(C)(C)C1CCC(N(Cc2ccc(C(=O)NCCC(=O)O)cc2)C(=O)Nc2ccc(Oc3ccccc3)cc2)CC1` (stereo not shown) [drawing 1168], the IC50 in assay [3] stood at 121 nM.

Regarding `CC(C)(C)c1ccc(CN(Cc2ccc(C(=O)NCCC(=O)O)cc2)C(=O)Nc2cc(Cl)cc(Cl)c2)cc1` [Example 108, 3-{4-[1-(4-tert-Butylbenzyl)-3-(3,5-dichlorophenyl)ureidomethyl]benzoylamino)propionic acid], the IC50 in assay [3] worked out at 669 nM.

For the compound `O=C(O)CCNC(=O)c1ccc(CN(CCc2cccc(Cl)c2)C(=O)Nc2cccc(SC(F)(F)F)c2)cc1` [Example 201, 3-{4-[1-[2-(3-Chlorophenyl)ethyl]-3-(3-trifluoromethylsulfanylphenyl)ureidomethyl]benzoylamino}propionic acid], in assay [3], the inhibition at 1 µM is greater than 50%.

With `CC(C)(C)C1CCC(N(Cc2ccc(C(=O)Nc3ccc(O)c([N+](=O)[O-])c3)cc2)C(=O)Nc2ccc(Cl)cc2)CC1` (stereo not shown) [Example 162, 4-[1-(4-tert-Butylcyclohexyl)-3-(4-chlorophenyl)ureidomethyl]-N-(4-hydroxy-3-nitrophenyl)benzamide], the inhibition at 1 µM in assay [3] was greater than 50%.

In the case of `CC(C)(C)C1CCC(N(Cc2ccc(S(=O)(=O)NCCC(=O)O)cc2)C(=O)Nc2ccc(OC(F)(F)F)cc2)CC1` (stereo not shown) [Example 106, 3-{4-[1-(4-tert-Butylcyclohexyl)-3-(4-trifluoromethoxyphenyl)ureidomethyl]benzenesulfonylamino)propionic acid], the IC50 in assay [3] turned out to be 468 nM.

For `CC1CCCCN1CCCN(Cc1ccc(C(=O)NCCC(=O)O)cc1)C(=O)Nc1ccc(Cl)c(C(F)(F)F)c1` (stereo not shown) [Example 193, 3-(4-{3-(4-Chloro-3-trifluoromethylphenyl)-1-[3-(2-methylpiperidin-1-yl)propyl]ureidomethyl}benzoylamino)propionic acid], the inhibition at 1 µM in assay [3] is greater than 50%.

With `CC(C)(C)[C@H]1CC[C@@H](N(Cc2ccc(C(=O)NCCC(=O)O)cc2)NC(=O)c2cccc(OC(F)(F)F)c2)CC1` [Example 590, 3-{4-[N-(cis-4-tert-Butylcyclohexyl)-N′-(3-trifluoromethoxybenzoyl)hydrazinomethyl]benzoylamino}propionic acid], in assay [3], the IC50 was 224 nM.
